Experimental findings from US20160135455A1, “SAFENED HERBICIDAL COMPOSITIONS COMPRISING PYRIDINE CARBOXYLIC ACIDS” (Dow AgroSciences LLC, priority 2014, published 2016) are described below.

SMILES strings stand for the structures. Read-outs that look alike come from different tables or passages of the source.

Type in all cases: in vivo
Series [1] relates to chickweed (STEME, Stellaria media). Description: Postemergence greenhouse trial, herbicidal efficacy on chickweed. The settings on record: post-emergence, 528 h, applied alone at 35 g/ha, postemergence. As to the method:
(§1) Seeds of the desired test plant species were planted in Sun Gro MetroMix® 306 planting mixture, which typically has a pH of 6.0 to 6.8 and an organic matter content of about 30 percent, in plastic pots with a surface area of 103.2 square centimeters (cm^2). When required to ensure good germination and healthy plants, a fungicide treatment and/or other chemical or physical treatment was applied. The plants were grown for 7-36 days (d) in a greenhouse with an approximate 14-hour (h) photoperiod which was maintained at about 23° C. during the day and 22° C. during the night. Nutrients and water were added on a regular basis and supplemental lighting was provided with overhead metal halide 1000-Watt lamps as necessary. The plants were employed for testing when they reached the second or third true leaf stage.
(§2) Weighed amounts of technical material were dissolved in a volume of 97:3 volume per volume (v/v) acetone/dimethyl sulfoxide (DMSO) to stock solutions. […] The concentrated stock solutions were diluted with an aqueous mixture of 1.5% v/v of Agri-dex crop oil concentrate to provide the appropriate application rates. Compound requirements are based upon a 12 milliliter (mL) application volume at a rate of 187 liters per hectare (L/ha). Stocks solutions of the safeners were prepared following the same procedure. Spray solutions of the safeners and experimental compound mixtures were prepared by adding the stock solutions to the appropriate amount of dilution solution to form a 12 mL spray solution in two-way combinations. Formulated compounds were applied to the plant material with an overhead Mandel track sprayer equipped with 8002E nozzles calibrated to deliver 187 L/ha over an application area of 0.503 square meters (m^2) at a spray height of 18 inches (43 centimeters (cm)) above average plant canopy. Control plants were sprayed in the same manner with the solvent blank. All herbicide application (component a) rates are in g ae/ha and all safener (component b) rates are in g ai/ha.
(§3) The treated plants and control plants were placed in a greenhouse as described above and watered by sub-irrigation to prevent wash-off of the test compounds. After 20-22 d, the condition of the test plants as compared with that of the control plants was determined visually and scored on a scale of 0 to 100 percent where 0 corresponds to no injury and 100 corresponds to complete kill. The condition of the test plants was compared with that of the control plants as determined visually and scored on a scale of 0 to 100 percent, where 0 corresponds to no injury and 100 corresponds to complete kill. Colby's equation was used to determine the herbicidal effects expected from the mixtures.

Series [2] relates to winter rape (BRSNW, Brassica napus). Briefly: Postemergence greenhouse trial, herbicidal efficacy on winter rape. The settings on record: post-emergence, 528 h, applied alone at 35 g/ha, postemergence. The procedure:
as §1, §2, §3

The subject of series [3] is wild buckwheat (POLCO, Polygonum convolvulus). Briefly: Postemergence greenhouse trial, herbicidal efficacy on wild buckwheat. Conditions: Fallopia convolvulus, post-emergence, 528 h, applied alone at 35 g/ha, postemergence. The procedure:
as §1, §2, §3

For series [4], the system named is poinsettia (EPHHL, Euphorbia heterophylla). Description: Postemergence greenhouse trial, herbicidal efficacy on poinsettia. The settings on record: applied alone at 35 g/ha, postemergence; for pest or weed control at 35 g/ha: Euphorbia heterophylla, post-emergence, 528 h, rated after 20-22 d, read-out: % visual injury, Obs, EPHHL; for Obs, % visual injury, EPHHL: scored 20-22 d. The procedure: as §1, §2, §3

In series [5] the test system is velvetleaf (ABUTH, Abutilon theophrasti). Briefly: Postemergence greenhouse trial, herbicidal efficacy on velvetleaf. Conditions: post-emergence, 528 h, applied alone at 35 g/ha, postemergence. As to the method:
as §1, §2, §3

For series [6], the system named is lambsquarters (CHEAL, Chenopodium album). Briefly: Postemergence greenhouse trial, herbicidal efficacy on lambsquarters. Conditions: post-emergence, 528 h, applied alone at 35 g/ha, postemergence. As to the method:
as §1, §2, §3

Series [7] concerns thistle (CIRAR, Cirsium arvense). Briefly: Postemergence greenhouse trial, herbicidal efficacy on thistle. The settings on record: post-emergence, 528 h, applied alone at 35 g/ha, postemergence. The procedure:
as §1, §2, §3

The test system of series [8] is pigweed (AMARE, Amaranthus retroflexus). Description: Postemergence greenhouse trial, herbicidal efficacy on pigweed. The settings on record: post-emergence, 528 h, applied alone at 35 g/ha, postemergence. The procedure:
as §1, §2, §3

The test system of series [9] is wild pansy (VIOTR, Viola tricolor). Briefly: Postemergence greenhouse trial, herbicidal efficacy on wild pansy. Conditions: applied alone at 35 g/ha, postemergence; for pest or weed control at 35 g/ha: Viola tricolor, post-emergence, 528 h, scored 20-22 d, read-out: Obs, % visual injury, VIOTR; for % visual injury, Obs, VIOTR: rated after 20-22 d. As to the method:
as §1, §2, §3

In series [10] the test system is sorghum (SORVU, Sorghum bicolor). Briefly: Postemergence greenhouse trial, herbicidal efficacy on sorghum. Conditions: applied alone at 35 g/ha; for Obs, % visual injury, SORVU: scored 20-22 d. As to the method:
as §1, §2, §3

In series [11] the test system is wheat (TRZAS), Triticum aestivum (spring wheat). Briefly: Postemergence greenhouse trial, crop injury (phytotoxicity/safening) on wheat. Conditions: applied alone at 35 g/ha, scored 20-22 d, 0 = no injury, 100 = complete kill. The procedure:
as §1, §2, §3
The safener fenchlorazole-ethyl was combined with compound 1, compound 2, compound 3, compound 4, compound 5, and compound 6, and applied to wheat (TRZAS), and the phytotoxicity of the herbicidal compositions was measured. In addition, the efficacy of the herbicidal composition on velvetleaf (ABUTH, Abutilon theophrasti), pigweed (AMARE, Amaranthus retroflexus), winter rape (BRSNW, Brassica napus), lambsquarters (CHEAL, Chenopodium album), thistle (CIRAR, Cirsium arvense), nutsedge (CYPES, Cyperus esculentus), poinsettia (EPHHL, Euphorbia heterophylla), wild buckwheat (POLCO, Polygonum convolvulus), giant foxtail (SETFA, Setaria faberi), sorghum (SORVU, Sorghum bicolor), chickweed (STEME, Stellaria media), and wild pansy (VIOTR, Viola tricolor) was evaluated.
The safener isoxadifen-ethyl was combined with compound 1, compound 2, compound 3, compound 4, compound 5, and compound 6, and applied to wheat (TRZAS), and the phytotoxicity of the herbicidal compositions was measured. […]

In series [12] the test system is giant foxtail (SETFA, Setaria faberi). Description: Postemergence greenhouse trial, herbicidal efficacy on giant foxtail. The settings on record: applied alone at 35 g/ha. The procedure:
as §1, §2, §3

Series [13] deals with nutsedge (CYPES, Cyperus esculentus). Description: Postemergence greenhouse trial, herbicidal efficacy on nutsedge. The settings on record: applied alone at 35 g/ha. The procedure: as §1, §2, §3
[14] abbreviates: rated after 20-22 d, read-out: % visual injury, Obs, STEME.
Where [15] appears, read: scored 20-22 d, read-out: Obs, % visual injury, STEME.
Where [16] appears, read: rated after 20-22 d, read-out: % visual injury, Obs, BRSNW.
Setting [17] is: scored 20-22 d, read-out: Obs, % visual injury, BRSNW.
[18] abbreviates: rated after 20-22 d, read-out: % visual injury, Obs, POLCO.
[19] abbreviates: scored 20-22 d, read-out: Obs, % visual injury, POLCO.
Setting [20] is: rated after 20-22 d, read-out: % visual injury, Obs, ABUTH.
Where [21] appears, read: scored 20-22 d, read-out: Obs, % visual injury, ABUTH.
[22] abbreviates: rated after 20-22 d, read-out: % visual injury, Obs, CHEAL.
The mark [23] stands for this setting: scored 20-22 d, read-out: Obs, % visual injury, CHEAL.
Where [24] appears, read: rated after 20-22 d, read-out: % visual injury, Obs, CIRAR.
Where [25] appears, read: scored 20-22 d, read-out: Obs, % visual injury, CIRAR.
Where [26] appears, read: rated after 20-22 d, read-out: % visual injury, Obs, AMARE.
Where [27] appears, read: scored 20-22 d, read-out: Obs, % visual injury, AMARE.

`Nc1c(F)c(-c2ccc3cc[nH]c3c2F)nc(C(=O)O)c1Cl` [compound 1]: the pest or weed control at 35 g/ha in series [1] (setting [14]) came out at 100%; in [1] (setting [15]) it was 100%; in series [3] (setting [18]), 99%; in series [3] (setting [19]) it was 99%; in series [4] it was 100%; in [5] (setting [20]) it was 85%. For the same compound, the pest or weed control at 35 g/ha in [5] (setting [21]) turned out to be 85%; in series [6] (setting [22]), 100%; in series [6] (setting [23]) it was 100%; in series [7] (setting [24]), 90%; in series [7] (setting [25]) it was 90%; in [8] (setting [26]), 100%. For the same compound, the pest or weed control at 35 g/ha in series [8] (setting [27]) came to 100%; in series [9] it was 64%. Besides, the plant injury at 35 g/ha in series [2] (setting [16]) and in [2] (setting [17]) was 99% each time. The “Obs, % visual injury, EPHHL” value in series [4] is given as 100%. Besides, the “% visual injury, Obs, VIOTR” value in series [9] is 64%.

For `Nc1c(F)c(-c2ccc3cc[nH]c3c2F)nc(C(=O)OCc2ccccc2)c1Cl` [compound 2], the pest or weed control at 35 g/ha came to 100% in series [1] (setting [14]); 100% in series [1] (setting [15]); 100% in series [3] (setting [18]); 100% in series [3] (setting [19]); 100% in series [4]; 80% in series [5] (setting [20]). Also, the pest or weed control at 35 g/ha in series [6] (setting [22]) is 97%; in series [6] (setting [23]), 97%; in [7] (setting [24]) it was 70%; in [7] (setting [25]), 70%; in [8] (setting [26]), 100%; in [8] (setting [27]) it was 100%. Moreover, in [9], the pest or weed control at 35 g/ha was 40%. Moreover, the “Obs, % visual injury, SORVU” value in [10] came out at 70%. In addition, the plant injury at 35 g/ha in [2] (setting [16]) and in series [2] (setting [17]) was 100% throughout. Moreover, in series [9], the “% visual injury, Obs, VIOTR” value amounted to 40%.

Consider `COC(=O)c1nc(-c2ccc3ccn(C(C)=O)c3c2F)c(F)c(N)c1Cl` [compound 3], for which, in series [2] (setting [17]), the plant injury at 35 g/ha came to 30%. Besides, in [11], the “Obs, % visual injury, TRZAS” value turned out to be 30%. Further, the pest or weed control at 35 g/ha in series [3] (setting [19]) was determined as 97%; in [5] (setting [21]), 50%; in [6] (setting [23]) it was 85%; in [7] (setting [25]) it was 50%; in [8] (setting [27]), 75%. Also, the “Obs, % visual injury, EPHHL” value in series [4] was 100%.

Turning to `CCOC(=O)c1nc(C(Cl)(Cl)Cl)n(-c2ccc(Cl)cc2Cl)n1` [fenchlorazole-ethyl, reference compound], the “% visual injury, Obs, SETFA” value in [12] (rated after 20-22 d) is given as 0%. Besides, in series [12] (scored 20-22 d), the “Obs, % visual injury, SETFA” value is listed as 0%. The pest or weed control at 35 g/ha in [1] (setting [14]), in [1] (setting [15]), in series [3] (setting [18]), in series [3] (setting [19]), in series [4] and in [5] (setting [20]) was 0% each time. The pest or weed control at 35 g/ha in [5] (setting [21]), in [6] (setting [22]), in series [6] (setting [23]), in series [7] (setting [24]), in series [7] (setting [25]) and in series [8] (setting [26]) was 0% each time. Besides, the pest or weed control at 35 g/ha in series [8] (setting [27]) and in series [9] was 0% each time. For the same compound, the “% visual injury, Obs, SORVU” value in series [10] (rated after 20-22 d) came to 0%. Besides, the “Obs, % visual injury, SORVU” value in series [10] was 0%. Moreover, the plant injury at 35 g/ha in series [2] (setting [16]) and in series [2] (setting [17]) was 0% each time. Besides, the “Obs, % visual injury, EPHHL” value in series [4] was 0%. Besides, in [13] (rated after 20-22 d), the “% visual injury, Obs, CYPES” value is listed as 0%. Moreover, the “Obs, % visual injury, CYPES” value in [13] (scored 20-22 d) is reported as 0%.
